Test results as given in PubChem BioAssay (NCI).
Where “and” joins values, the source holds several entries; their conditions need not be identical. Identical values can stand only once.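 In this assay, cells in 96-well plates receive the compound at five concentrations for 48 hours. Endpoints are linearly interpolated between the surrounding concentrations. GI50: concentration for 50% inhibition of growth. The concentration for full growth arrest is given as TGI.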

Legend:
Assay in all cases: NCI anticancer screen, dose series, 48 h
MOLT-4 leukemia = tested on: MOLT-4 leukemia
HT29 colon = tested on: HT29 colon
786-0 renal = tested on: 786-0 renal
T-47D breast = tested on: T-47D breast
MDA-N = tested on: MDA-N
DU-145 prostate = tested on: DU-145 prostate
OVCAR-5 ovarian = tested on: OVCAR-5 ovarian
SK-MEL-28 melanoma = tested on: SK-MEL-28 melanoma
IGROV1 ovarian = tested on: IGROV1 ovarian
SK-MEL-2 melanoma = tested on: SK-MEL-2 melanoma
A498 renal = tested on: A498 renal

COC1(C)CCC(OS(C)(=O)=O)CO1 (stereo unspecified)
TGI (MOLT-4 leukemia): > 100 µM | TGI (HT29 colon): > 100 µM | TGI (786-0 renal): > 100 µM | TGI (T-47D breast): > 100 µM | TGI (MDA-N): > 100 µM | TGI (DU-145 prostate): > 100 µM | TGI (OVCAR-5 ovarian): > 100 µM | TGI (SK-MEL-28 melanoma): > 100 µM | TGI (IGROV1 ovarian): > 100 µM | TGI (SK-MEL-2 melanoma): > 100 µM | TGI (A498 renal): > 100 µM

CC(Cl)(CCC(Cl)C(C)(C)Cl)C(=O)CBr (stereo unspecified)
TGI (MOLT-4 leukemia): 3.81 µM | TGI (HT29 colon): 32.3 µM | TGI (786-0 renal): 20.7 µM | TGI (T-47D breast): 50.7 µM | TGI (MDA-N): 21.3 µM | TGI (DU-145 prostate): 33.7 µM | TGI (OVCAR-5 ovarian): 31.6 µM | TGI (SK-MEL-28 melanoma): 31.6 µM | TGI (IGROV1 ovarian): 26.7 µM | TGI (SK-MEL-2 melanoma): 30.3 µM | TGI (A498 renal): 31.1 µM

C/C(CC(O)(C(F)(F)F)C(F)(F)F)=N\O
TGI (MOLT-4 leukemia): > 10 µM | TGI (HT29 colon): > 10 µM | TGI (786-0 renal): > 10 µM | TGI (T-47D breast): > 10 µM | TGI (MDA-N): > 10 µM | TGI (DU-145 prostate): > 10 µM | TGI (OVCAR-5 ovarian): > 10 µM | TGI (SK-MEL-28 melanoma): > 10 µM | TGI (IGROV1 ovarian): > 10 µM | TGI (SK-MEL-2 melanoma): > 10 µM | TGI (A498 renal): > 10 µM

CC1=NN(c2ccccc2)C(=O)/C1=C\c1c(C)[nH]n(-c2ccccc2)c1=O
TGI (MOLT-4 leukemia): > 100 µM | TGI (HT29 colon): > 100 µM | TGI (786-0 renal): > 100 µM | TGI (T-47D breast): > 100 µM | TGI (MDA-N): > 100 µM | TGI (DU-145 prostate): > 100 µM | TGI (OVCAR-5 ovarian): > 100 µM | TGI (SK-MEL-28 melanoma): > 100 µM | TGI (IGROV1 ovarian): > 100 µM | TGI (SK-MEL-2 melanoma): > 100 µM | TGI (A498 renal): > 100 µM

Cc1cc(NS(=O)(=O)c2ccc(Nc3c4ccccc4nc4c(C(=O)NC(CO)(CO)CO)cccc34)cc2)no1
TGI (MOLT-4 leukemia): 49 µM | TGI (HT29 colon): > 100 µM | TGI (786-0 renal): > 100 µM | TGI (T-47D breast): > 100 µM | TGI (MDA-N): > 100 µM | TGI (DU-145 prostate): > 100 µM | TGI (OVCAR-5 ovarian): > 100 µM | TGI (SK-MEL-28 melanoma): > 100 µM | TGI (IGROV1 ovarian): > 100 µM | TGI (SK-MEL-2 melanoma): 48.5 µM | TGI (A498 renal): > 100 µM

COc1ccc(C2C3=C(COC3=O)Oc3cc4c(cc32)OCO4)cc1OC (stereo unspecified)
TGI (MOLT-4 leukemia): > 29.9 µM | TGI (HT29 colon): 13 µM | TGI (786-0 renal): > 100 µM | TGI (T-47D breast): > 100 µM | TGI (MDA-N): 0.639 µM | TGI (DU-145 prostate): > 67.2 µM | TGI (OVCAR-5 ovarian): > 100 µM | TGI (SK-MEL-28 melanoma): > 100 µM | TGI (IGROV1 ovarian): > 100 µM | TGI (SK-MEL-2 melanoma): > 100 µM | TGI (A498 renal): 8.18 µM

CCC1OC2(C)CC(C#N)(C#N)C1(C#N)C(=N)O2 (stereo unspecified)
TGI (MOLT-4 leukemia): > 100 µM | TGI (786-0 renal): > 100 µM | TGI (T-47D breast): > 100 µM | TGI (MDA-N): > 100 µM | TGI (DU-145 prostate): > 100 µM | TGI (OVCAR-5 ovarian): > 100 µM | TGI (SK-MEL-28 melanoma): > 100 µM | TGI (IGROV1 ovarian): > 100 µM | TGI (SK-MEL-2 melanoma): > 100 µM | TGI (A498 renal): > 100 µM

Cc1ccc(N=Nc2c(O)ccc3ccccc23)c(C)c1
TGI (MOLT-4 leukemia): > 100 µM | TGI (HT29 colon): > 100 µM | TGI (786-0 renal): > 100 µM | TGI (T-47D breast): > 100 µM | TGI (MDA-N): > 100 µM | TGI (DU-145 prostate): > 100 µM | TGI (OVCAR-5 ovarian): > 100 µM | TGI (SK-MEL-28 melanoma): > 100 µM | TGI (IGROV1 ovarian): > 100 µM | TGI (SK-MEL-2 melanoma): > 100 µM | TGI (A498 renal): > 100 µM

CNCC(SC)c1ccc(O)c(O)c1 (stereo unspecified)
TGI (MOLT-4 leukemia): 47.2 µM | TGI (HT29 colon): 99.5 µM | TGI (786-0 renal): 39.1 µM | TGI (T-47D breast): 67 µM | TGI (MDA-N): 38.1 µM | TGI (DU-145 prostate): 37.4 µM | TGI (OVCAR-5 ovarian): > 100 µM | TGI (SK-MEL-28 melanoma): > 100 µM | TGI (IGROV1 ovarian): > 100 µM | TGI (SK-MEL-2 melanoma): > 100 µM | TGI (A498 renal): > 100 µM

O=C(O)c1c(CC(Cc2ccccc2)C(=O)O)ccc2c1CCC2 (stereo unspecified)
TGI (MOLT-4 leukemia): > 100 µM | TGI (HT29 colon): > 100 µM | TGI (786-0 renal): > 100 µM | TGI (T-47D breast): > 100 µM | TGI (MDA-N): > 100 µM | TGI (DU-145 prostate): > 100 µM | TGI (OVCAR-5 ovarian): > 100 µM | TGI (SK-MEL-28 melanoma): > 100 µM | TGI (IGROV1 ovarian): > 100 µM | TGI (SK-MEL-2 melanoma): > 100 µM | TGI (A498 renal): > 100 µM

CSCCC(NC(=O)C(Cc1c[nH]c2ccccc12)NC(=O)CCNC(=O)OC(C)(C)C)C(=O)NC(CC(=O)O)C(=O)NC(Cc1ccccc1)C(N)=O (stereo unspecified)
TGI (MOLT-4 leukemia): > 50 µM | TGI (HT29 colon): > 50 µM | TGI (786-0 renal): > 50 µM | TGI (T-47D breast): > 50 µM | TGI (MDA-N): > 50 µM | TGI (DU-145 prostate): > 50 µM | TGI (OVCAR-5 ovarian): > 50 µM | TGI (SK-MEL-28 melanoma): > 50 µM | TGI (IGROV1 ovarian): > 50 µM | TGI (SK-MEL-2 melanoma): > 50 µM | TGI (A498 renal): > 50 µM

CCN(CC)CC[n+]1ccc2c(C)c3[nH]c4ccccc4c3c(C)c2c1
GI50 (MOLT-4 leukemia): 274 nM | TGI (MOLT-4 leukemia): 1.59 µM and 6.02 µM and 3.27 µM | GI50 (HT29 colon): 416 nM | TGI (HT29 colon): 3.82 µM and 4.45 µM and 4.46 µM | TGI (786-0 renal): 5.96 µM | TGI (T-47D breast): 1.19 µM | TGI (MDA-N): 1.99 µM | TGI (DU-145 prostate): 3.72 µM | GI50 (OVCAR-5 ovarian): 2740 nM | TGI (OVCAR-5 ovarian): 5.15 µM and 15 µM and 7.28 µM | GI50 (SK-MEL-28 melanoma): 1130 nM | TGI (SK-MEL-28 melanoma): 1.3 µM and 6.15 µM and 2.1 µM | GI50 (IGROV1 ovarian): 365 nM and 1210 nM and 786 nM | TGI (IGROV1 ovarian): 3.45 µM and 11.2 µM and 5.33 µM | GI50 (SK-MEL-2 melanoma): 1400 nM | TGI (SK-MEL-2 melanoma): 1.56 µM and 3.43 µM and 1.29 µM | TGI (A498 renal): 25.2 µM and 28.8 µM and 17.9 µM

Nc1ccnc2c1ncn2[C@H]1C[C@H](O)[C@@H](CO)O1
TGI (MOLT-4 leukemia): > 100 µM | TGI (HT29 colon): > 100 µM | TGI (786-0 renal): > 100 µM | TGI (T-47D breast): > 100 µM | TGI (MDA-N): > 100 µM | TGI (DU-145 prostate): > 100 µM | TGI (OVCAR-5 ovarian): > 100 µM | TGI (SK-MEL-28 melanoma): > 100 µM | TGI (IGROV1 ovarian): > 100 µM | TGI (SK-MEL-2 melanoma): > 100 µM | TGI (A498 renal): > 100 µM

COC(=O)CCCc1nc2ccccc2nc1N=Nc1ccccc1
TGI (MOLT-4 leukemia): 26.3 µM | TGI (HT29 colon): > 100 µM | TGI (786-0 renal): > 100 µM | TGI (T-47D breast): > 100 µM | TGI (MDA-N): > 100 µM | TGI (DU-145 prostate): > 100 µM | TGI (OVCAR-5 ovarian): > 100 µM | TGI (SK-MEL-28 melanoma): > 100 µM | TGI (IGROV1 ovarian): > 100 µM | TGI (SK-MEL-2 melanoma): > 100 µM | TGI (A498 renal): > 100 µM

CN(C)Cc1cc(/C=C/C(=O)c2ccc(Br)cc2)cc(CN(C)C)c1O
TGI (MOLT-4 leukemia): 42.9 µM | TGI (HT29 colon): 62.4 µM | TGI (786-0 renal): 29.9 µM | TGI (T-47D breast): 35.4 µM | TGI (MDA-N): 32.6 µM | TGI (DU-145 prostate): 33.7 µM | TGI (OVCAR-5 ovarian): > 100 µM | TGI (SK-MEL-28 melanoma): 34.9 µM | TGI (IGROV1 ovarian): 23.4 µM | TGI (SK-MEL-2 melanoma): 90.5 µM | TGI (A498 renal): 27.7 µM

CC(C)(C)c1cc(C(C)(C)C)c(SC2OC(CO)C(O)C(O)C2O)c(O)c1O (stereo unspecified)
TGI (MOLT-4 leukemia): > 100 µM | TGI (HT29 colon): 24.5 µM | TGI (786-0 renal): 30.4 µM | TGI (T-47D breast): 72.4 µM | TGI (MDA-N): 15.8 µM | TGI (DU-145 prostate): 31.8 µM | TGI (OVCAR-5 ovarian): 32.1 µM | TGI (SK-MEL-28 melanoma): 70.5 µM | TGI (IGROV1 ovarian): 43.4 µM | TGI (SK-MEL-2 melanoma): 25 µM | TGI (A498 renal): 34.8 µM
